1 molecule from US11045464B2, “Parenteral formulations of dopamine agonists” (VeroScience LLC, priority 2007, dated 2021) can be followed below.

A short description of this data set: Stability of SKF-38393 in solution. It counts as physicochemical. An excerpt:
Formulation 22S was a combination of […], employing the 11S base formulation with the two active agents. […] A short study has been run to ensure the stability of SKF-38393. […] In contrast, in alcohol solution, the API decomposes rapidly, with >5% of the API already lost within the first hour.

A value given as a limit tells only on which side of the number the result lay.

In the case of `Oc1cc2c(cc1O)C(c1ccccc1)CNCC2` (centres unmarked) [SKF-38393], where the note is “in alcohol solution, within the first hour”, the “API lost (decomposition)” value is recorded as greater than 5%. Also, the “decomposition of SKF-38393” value (in water buffered by the acidic acid, within 12 h) was “no decomposition”.
